Test results reported in patent US20060069132A1, “Azolecarboxamide herbicides” (priority 2004, published 2006).

Experiments:
morningglory = assay: Test C pre-/postemergence herbicide test; format: in vivo, Ipomoea coccinea; parameters: key to Plant response rating, Morningglory: 0 = no effect, 100 = complete control; settings: for Plant response rating, Morningglory / Plant response rating (0 = no effect, 100 = complete control), Morningglory: preemergence
Outline: (§1)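 Seeds were planted and sprayed preemergence with test chemicals in a non-phytotoxic solvent mixture containing surfactant; postemergence treatments went onto plants 2 to 18 cm tall (1- to 4-leaf stage). After 12 to 14 days in a greenhouse, injury was rated visually against untreated controls on a 0–100 scale.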

woolly cupgrass = assay: Test C pre-/postemergence herbicide test; format: in vivo, Eriochloa villosa; settings: for Plant response rating, Cupgrass, Woolly / Plant response rating (0 = no effect, 100 = complete control), Cupgrass, Woolly: preemergence
Outline: as §1

cocklebur = assay: Test C pre-/postemergence herbicide test; format: in vivo, Xanthium strumarium; settings: for Plant response rating, Cocklebur / Plant response rating (0 = no effect, 100 = complete control), Cocklebur: preemergence
Outline: as §1

goosegrass = assay: Test C pre-/postemergence herbicide test; format: in vivo, Eleusine indica; settings: for Plant response rating, Goosegrass / Plant response rating (0 = no effect, 100 = complete control), Goosegrass: preemergence
Outline: as §1

barnyardgrass = assay: Test C flooded paddy test; format: in vivo, Echinochloa crus-galli
Outline: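 Postemergence sprays applied to plants 2 to 18 cm tall (1- to 4-leaf stage); paddy species grown to 2-leaf stage under flooding. After 12 to 14 days in greenhouse, visual rating versus untreated controls on 0–100 scale (0 no effect, 100 complete control).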

giant foxtail = assay: Test C pre-/postemergence herbicide test; format: in vivo, Setaria faberi; settings: for Plant response rating, Foxtail, Giant / Plant response rating (0 = no effect, 100 = complete control), Foxtail, Giant: preemergence
Outline: as §1

velvetleaf = assay: Test C pre-/postemergence herbicide test; format: in vivo, Abutilon theophrasti; settings: for Plant response rating, Velvetleaf / Plant response rating (0 = no effect, 100 = complete control), Velvetleaf: preemergence
Outline: as §1

yellow nutsedge = assay: Test C pre-/postemergence herbicide test; format: in vivo, Cyperus esculentus; settings: for Plant response rating, Nutsedge, Yellow / Plant response rating (0 = no effect, 100 = complete control), Nutsedge, Yellow: preemergence
Outline: as §1

kochia = assay: Test C pre-/postemergence herbicide test; format: in vivo, Kochia scoparia; settings: for Plant response rating, Kochia / Plant response rating (0 = no effect, 100 = complete control), Kochia: preemergence
Outline: as §1

corn = assay: Test C pre-/postemergence herbicide test; format: in vivo, Zea mays; settings: for Plant response rating, Corn / Plant response rating (0 = no effect, 100 = complete control), Corn: preemergence
Outline: as §1

soybean = assay: Test C pre-/postemergence herbicide test; format: in vivo, Glycine max; settings: for Plant response rating, Soybean / Plant response rating (0 = no effect, 100 = complete control), Soybean: preemergence
Outline: as §1

bermudagrass = assay: Test C pre-/postemergence herbicide test; format: in vivo, Cynodon dactylon; settings: for Plant response rating, Bermudagrass / Plant response rating (0 = no effect, 100 = complete control), Bermudagrass: preemergence
Outline: as §1

[1] = 500 g ai/ha, scale 0 to 100 (0 no effect, 100 complete control), visual, 12 to 14 days
[2] = 62 g ai/ha, scale 0 to 100 (0 no effect, 100 complete control)
[3] = 250 g ai/ha, scale 0 to 100 (0 no effect, 100 complete control), visual, 12 to 14 days
[4] = Preemergence, 500 g ai/ha, scale 0 to 100, 0 no effect, 100 complete control
[5] = 125 g ai/ha, scale 0 (no effect) to 100 (complete control), visual, 12 to 14 days

## CCC1=NN(C(C)(C)C)CC1C(=O)Nc1cc(C(=O)N(C)C)ccc1F (racemic) [Compound 343]
morningglory; 62 g ai/ha, scale 0 to 100
  Plant response rating, Morningglory: 5
morningglory; 125 g ai/ha
  Plant response rating (0 = no effect, 100 = complete control), Morningglory: 60
morningglory; 250 g ai/ha, scale 0-100
  Plant response rating, Morningglory: 100
morningglory; [1]
  Plant response rating, Morningglory: 100
Woolly cupgrass; 62 g ai/ha, scale 0 to 100
  Plant response rating, Cupgrass, Woolly: 40
Woolly cupgrass; 125 g ai/ha
  Plant response rating (0 = no effect, 100 = complete control), Cupgrass, Woolly: 65
Woolly cupgrass; 250 g ai/ha, scale 0-100
  Plant response rating, Cupgrass, Woolly: 70
Woolly cupgrass; [1]
  Plant response rating, Cupgrass, Woolly: 100
cocklebur; 62 g ai/ha, scale 0 to 100
  Plant response rating, Cocklebur: 30
cocklebur; 125 g ai/ha
  Plant response rating (0 = no effect, 100 = complete control), Cocklebur: 80
cocklebur; 250 g ai/ha, scale 0-100
  Plant response rating, Cocklebur: 80
cocklebur; [1]
  Plant response rating, Cocklebur: 100
goosegrass; 62 g ai/ha, scale 0 to 100
  Plant response rating, Goosegrass: 60
goosegrass; 125 g ai/ha
  Plant response rating (0 = no effect, 100 = complete control), Goosegrass: 75
goosegrass; 250 g ai/ha, scale 0-100
  Plant response rating, Goosegrass: 80
goosegrass; [1]
  Plant response rating, Goosegrass: 85
barnyardgrass; [2]
  Barnyardgrass plant response rating: 20
barnyardgrass; 125 g ai/ha, scale 0 to 100 (0 no effect, 100 complete control)
  Barnyardgrass plant response rating: 20
barnyardgrass; 250 g ai/ha, scale of 0 to 100, 0 is no effect, 100 is complete control
  Barnyardgrass plant response rating: 60
barnyardgrass; 500 g ai/ha, visual rating after 12 to 14 days, scale 0 to 100 (0 no effect, 100 complete control)
  Plant response rating, Barnyardgrass: 80
Giant foxtail; 62 g ai/ha, scale 0 to 100
  Plant response rating, Foxtail, Giant: 40
Giant foxtail; 125 g ai/ha
  Plant response rating (0 = no effect, 100 = complete control), Foxtail, Giant: 50
Giant foxtail; 250 g ai/ha, scale 0-100
  Plant response rating, Foxtail, Giant: 70
Giant foxtail; [1]
  Plant response rating, Foxtail, Giant: 80
velvetleaf; 62 g ai/ha, scale 0 to 100
  Plant response rating, Velvetleaf: 60
velvetleaf; 125 g ai/ha
  Plant response rating (0 = no effect, 100 = complete control), Velvetleaf: 80
velvetleaf; 250 g ai/ha, scale 0-100
  Plant response rating, Velvetleaf: 100
velvetleaf; [1]
  Plant response rating, Velvetleaf: 100
Yellow nutsedge; 62 g ai/ha, scale 0 to 100
  Plant response rating, Nutsedge, Yellow: 5
Yellow nutsedge; 125 g ai/ha
  Plant response rating (0 = no effect, 100 = complete control), Nutsedge, Yellow: 10
Yellow nutsedge; 250 g ai/ha, scale 0-100
  Plant response rating, Nutsedge, Yellow: 60
Yellow nutsedge; [1]
  Plant response rating, Nutsedge, Yellow: 90
kochia; 62 g ai/ha, scale 0 to 100
  Plant response rating, Kochia: 90
kochia; 125 g ai/ha
  Plant response rating (0 = no effect, 100 = complete control), Kochia: 100
kochia; 250 g ai/ha, scale 0-100
  Plant response rating, Kochia: 100
kochia; [1]
  Plant response rating, Kochia: 100
corn; 62 g ai/ha, scale 0 to 100
  Plant response rating, Corn: 40
corn; 125 g ai/ha
  Plant response rating (0 = no effect, 100 = complete control), Corn: 70
corn; 250 g ai/ha, scale 0-100
  Plant response rating, Corn: 70
corn; [1]
  Plant response rating, Corn: 80
soybean; 62 g ai/ha, scale 0 to 100
  Plant response rating, Soybean: 40
soybean; 125 g ai/ha
  Plant response rating (0 = no effect, 100 = complete control), Soybean: 80
soybean; 250 g ai/ha, scale 0-100
  Plant response rating, Soybean: 100
soybean; [1]
  Plant response rating, Soybean: 100
bermudagrass; 62 g ai/ha, scale 0 to 100, 0 no effect, 100 complete control
  Plant response rating, Bermudagrass: 60
bermudagrass; 125 g ai/ha
  Plant response rating (0 = no effect, 100 = complete control), Bermudagrass: 70
bermudagrass; 250 g ai/ha, scale 0-100
  Plant response rating, Bermudagrass: 90
bermudagrass; [1]
  Plant response rating, Bermudagrass: 90

## CCN(C)C(=O)c1cccc(NC(=O)c2cc(C(C)(C)C)nn2CC)c1 [Compound 48]
morningglory; 62 g ai/ha
  Plant response rating (0 = no effect, 100 = complete control), Morningglory: 0
morningglory; [3]
  Plant response rating, Morningglory: 0
morningglory; [4]
  Morningglory plant response rating: 20
Woolly cupgrass; 62 g ai/ha
  Plant response rating (0 = no effect, 100 = complete control), Cupgrass, Woolly: 0
Woolly cupgrass; [5]
  Plant response rating, Cupgrass, Woolly: 0
Woolly cupgrass; [3]
  Plant response rating, Cupgrass, Woolly: 5
Woolly cupgrass; [4]
  Cupgrass, Woolly plant response rating: 20
cocklebur; 62 g ai/ha
  Plant response rating (0 = no effect, 100 = complete control), Cocklebur: 0
cocklebur; [5]
  Plant response rating, Cocklebur: 0
cocklebur; [3]
  Plant response rating, Cocklebur: 0
cocklebur; [4]
  Cocklebur plant response rating: 10
goosegrass; 62 g ai/ha
  Plant response rating (0 = no effect, 100 = complete control), Goosegrass: 20
goosegrass; [5]
  Plant response rating, Goosegrass: 70
goosegrass; [3]
  Plant response rating, Goosegrass: 90
goosegrass; [4]
  Goosegrass plant response rating: 90
barnyardgrass; 16 g ai/ha, scale 0 to 100
  Barnyardgrass plant response rating: 0
barnyardgrass; 31 g ai/ha, scale 0 to 100
  Barnyardgrass plant response rating: 0
barnyardgrass; [2]
  Barnyardgrass plant response rating: 0
barnyardgrass; 125 g ai/ha, scale of 0 to 100, 0 is no effect, 100 is complete control
  Barnyardgrass plant response rating: 0
Giant foxtail; 62 g ai/ha
  Plant response rating (0 = no effect, 100 = complete control), Foxtail, Giant: 0
Giant foxtail; [5]
  Plant response rating, Foxtail, Giant: 0
Giant foxtail; [3]
  Plant response rating, Foxtail, Giant: 10
Giant foxtail; [4]
  Foxtail, Giant plant response rating: 50
velvetleaf; 62 g ai/ha
  Plant response rating (0 = no effect, 100 = complete control), Velvetleaf: 0
velvetleaf; [5]
  Plant response rating, Velvetleaf: 0
velvetleaf; [3]
  Plant response rating, Velvetleaf: 10
velvetleaf; [4]
  Velvetleaf plant response rating: 70
Yellow nutsedge; 62 g ai/ha
  Plant response rating (0 = no effect, 100 = complete control), Nutsedge, Yellow: 0
Yellow nutsedge; [5]
  Plant response rating, Nutsedge, Yellow: 0
Yellow nutsedge; [3]
  Plant response rating, Nutsedge, Yellow: 10
Yellow nutsedge; [4]
  Nutsedge, Yellow plant response rating: 30
kochia; 62 g ai/ha
  Plant response rating (0 = no effect, 100 = complete control), Kochia: 10
kochia; [5]
  Plant response rating, Kochia: 60
kochia; [3]
  Plant response rating, Kochia: 80
kochia; [4]
  Kochia plant response rating: 100
corn; 62 g ai/ha
  Plant response rating (0 = no effect, 100 = complete control), Corn: 0
corn; [5]
  Plant response rating, Corn: 0
corn; [3]
  Plant response rating, Corn: 0
corn; [4]
  Corn plant response rating: 0
soybean; 62 g ai/ha
  Plant response rating (0 = no effect, 100 = complete control), Soybean: 0
soybean; [5]
  Plant response rating, Soybean: 0
soybean; [3]
  Plant response rating, Soybean: 0
soybean; [4]
  Soybean plant response rating: 30
bermudagrass; 62 g ai/ha
  Plant response rating (0 = no effect, 100 = complete control), Bermudagrass: 80
bermudagrass; [5]
  Plant response rating, Bermudagrass: 90
bermudagrass; [3]
  Plant response rating, Bermudagrass: 90
bermudagrass; [4]
  Bermudagrass plant response rating: 95
